# Test results taken from patent US20220008419A1, “PHARMACEUTICAL COMPOSITION FOR TREATING DIFFUSE-TYPE GASTRIC CANCER” (KANAZAWA MEDICAL UNIVERSITY, priority 2018, published 2022).
# Assays:
# ErbB2 (HER2) = ErbB2 (HER2) (Homo sapiens, UniProt P04626); details: reported in literature; cited from earlier work
# ErbB4 (HER4) = ErbB4 (HER4) (Homo sapiens, UniProt Q15303); details: reported in literature; cited from earlier work
# mutant EGFR = details: reported in literature; cited from earlier work
# [1] = tested on: non-small cell lung cancer with EGFR EX20Ins mutation; details: Floc'h et al.; cited from earlier work
# [2] = tested on: Diffuse gastric cancer cells (NUGC4 cells); experiment: In vivo test: survival of mice intraperitoneally transplanted with NUGC4 cells; set-up: species or system Balb/c nu/nu mice; details: for mice alive 11 weeks after the gastric cancer cell transplantation / mice alive seven weeks after the gastric cancer cell transplantation: eight mice per therapy, treatment from day 21, AZ5104/osimertinib 10 mg/kg once a day oral, savolitinib 2.5 mg/kg once a day oral, antibody 40 mg/kg twice a week intraperitoneal; for t-test for numbers of mice alive 11 weeks after transplantation compared with the control group: p<0.05
# Description: The anti-VEGF receptor 2 antibody used was anti-mouse VEGF receptor 2 antibody DC101 (GeneTex).
# Diffuse gastric cancer cells (NUGC4 cells) were transplanted to Balb/c nu/nu mice (6 weeks old) by intraperitoneal administration of 2×10^6 of the cells in 200 μL of phosphate buffered saline (PBS) per mouse. On day 21 after the transplantation, ascites accumulation was confirmed, and treatment was started. The treatment was performed with the following eight kinds of therapies, and eight mice were used for each therapy.
# For the control group (vehicle control), only a solution not dissolving any drug was administered once a week. The administration was continued for 4 weeks, and then for another 4 weeks.
# EGFR (ErbB1) = EGFR (ErbB1) (Homo sapiens, UniProt P00533); details: reported in literature; cited from earlier work
# [3] = tested on: normal human gastric fibroblasts; experiment: In vitro growth inhibition test for fibroblasts (cell count); format: cell-based; details: HB-EGF 10 ng/mL, EGF receptor inhibitor 1 μM, 96 hours
# GCIY = experiment: In vitro cell growth inhibition (CCK-8), diffuse gastric cancer cell line GCIY; format: cell-based, human; details: 72 hours; for HB-EGF-induced cell growth of GCIY / HGF-induced cell growth of GCIY / amphiregulin-induced cell growth of GCIY: inhibitor 0.001 to 10 μM; for HGF-induced cell growth of GCIY: HGF 50 ng/mL; for amphiregulin-induced cell growth of GCIY: amphiregulin 100 ng/mL; for baseline cell growth of GCIY: no growth factor added
# Description: (§1) Five types of cell lines (NUGC4, GCIY, MKN7, GCR1 and MKN45) were subcultured in the RPMI 1640 culture medium containing 10% concentration of fetal bovine serum, 100 units/mL concentration of penicillin, and 100 units/mL concentration of antibiotic streptomycin, and used in the following experiments. The cells were periodically examined for the presence of mycoplasma infection by using MycoAlert Mycoplasma Detection Kit (Lonza). Cell growth was measured by using Cell Counting Kit-8 (CCK-8) (Dojin Kagaku Kenkyusho, Kumamoto, Japan) (Ishiyama M., et al., […], 44; 1299:1997). The cells were inoculated at a density of 5×10^4 cells/mL in a volume of 100 μL per well, and incubated at 37° C. for 24 hours in an incubator. Then, any one of three types of cell growth factors, amphiregulin (AP, 100 ng/mL, R&D Systems, Minneapolis, Minn.), heparin-binding EGF-like growth factor (HB-EGF), and hepatocyte growth factor (HGF, 50 ng/mL, R&D Systems), and any one of two types of the EGFR inhibitors, AZ5104 (0.001 to 10 μM) and AST1306 (0.001 to 10 μM)), were added to each well, and the cells were further incubated at 37° C. for 72 hours in an incubator. In addition, to the control wells, any one of the three types of cell growth factors was added, but not the EGFR inhibitor. Further, 10 μL of a WST-8 solution was added to each well, and the cells were cultured at 37° C. for 4 hours. Absorbance was measured at a wavelength of 450 nm by using a microplate reader (BIO-RAD Laboratories, Inc.). All the experiments were performed in triplicate, that is, the same experiment was repeated three times.
# MKN45 = experiment: In vitro cell growth inhibition (CCK-8), cMet gene-amplified gastric cancer cell line MKN45; format: cell-based, human; details: 72 hours
# Description: as §1, with “Further, 10 μL of a WST-8 solution was added to each well, and the cells were cultured at 37° C. for 4 hours.” left out, “All the experiments were performed in triplicate, that is, the same experiment was repeated three times.” left out
# GCR-1 = experiment: In vitro cell growth inhibition (CCK-8), non-diffuse gastric cancer cell line GCR-1; format: cell-based, human; details: HGF 50 ng/mL, 72 hours
# Description: as §1, with “Further, 10 μL of a WST-8 solution was added to each well, and the cells were cultured at 37° C. for 4 hours.” left out, “All the experiments were performed in triplicate, that is, the same experiment was repeated three times.” left out
# MKN7 = experiment: In vitro cell growth inhibition (CCK-8), non-diffuse gastric cancer cell line MKN7; format: cell-based, human; details: HGF 50 ng/mL, 72 hours
# Description: as §1, with “Further, 10 μL of a WST-8 solution was added to each well, and the cells were cultured at 37° C. for 4 hours.” left out, “All the experiments were performed in triplicate, that is, the same experiment was repeated three times.” left out
# NUGC4 = experiment: In vitro cell growth inhibition (CCK-8), diffuse gastric cancer cell line NUGC4; format: cell-based, human; details: inhibitor 0.001 to 10 μM, 72 hours; for HGF-induced cell growth of NUGC4: HGF 50 ng/mL; for amphiregulin-induced cell growth of NUGC4: amphiregulin 100 ng/mL
# Description: as §1
# [4] = tested on: FVB-2/Nneu transgenic breast cancer; details: Hua Xie et al.; cited from earlier work
# [5] = tested on: ErbB2-overexpressing cells; details: Hua Xie et al.; cited from earlier work
# cancer patients = details: among 55 evaluable cancer patients, phase I; cited from earlier work
# [6] = tested on: ErbB2-overexpressing adenocarcinoma xenograft; details: Hua Xie et al.; cited from earlier work
# [7] = tested on: EGFR-overexpressing tumor xenograft; details: Hua Xie et al.; cited from earlier work
# EGFR (ErbB1), sequence (P00533 25-1210): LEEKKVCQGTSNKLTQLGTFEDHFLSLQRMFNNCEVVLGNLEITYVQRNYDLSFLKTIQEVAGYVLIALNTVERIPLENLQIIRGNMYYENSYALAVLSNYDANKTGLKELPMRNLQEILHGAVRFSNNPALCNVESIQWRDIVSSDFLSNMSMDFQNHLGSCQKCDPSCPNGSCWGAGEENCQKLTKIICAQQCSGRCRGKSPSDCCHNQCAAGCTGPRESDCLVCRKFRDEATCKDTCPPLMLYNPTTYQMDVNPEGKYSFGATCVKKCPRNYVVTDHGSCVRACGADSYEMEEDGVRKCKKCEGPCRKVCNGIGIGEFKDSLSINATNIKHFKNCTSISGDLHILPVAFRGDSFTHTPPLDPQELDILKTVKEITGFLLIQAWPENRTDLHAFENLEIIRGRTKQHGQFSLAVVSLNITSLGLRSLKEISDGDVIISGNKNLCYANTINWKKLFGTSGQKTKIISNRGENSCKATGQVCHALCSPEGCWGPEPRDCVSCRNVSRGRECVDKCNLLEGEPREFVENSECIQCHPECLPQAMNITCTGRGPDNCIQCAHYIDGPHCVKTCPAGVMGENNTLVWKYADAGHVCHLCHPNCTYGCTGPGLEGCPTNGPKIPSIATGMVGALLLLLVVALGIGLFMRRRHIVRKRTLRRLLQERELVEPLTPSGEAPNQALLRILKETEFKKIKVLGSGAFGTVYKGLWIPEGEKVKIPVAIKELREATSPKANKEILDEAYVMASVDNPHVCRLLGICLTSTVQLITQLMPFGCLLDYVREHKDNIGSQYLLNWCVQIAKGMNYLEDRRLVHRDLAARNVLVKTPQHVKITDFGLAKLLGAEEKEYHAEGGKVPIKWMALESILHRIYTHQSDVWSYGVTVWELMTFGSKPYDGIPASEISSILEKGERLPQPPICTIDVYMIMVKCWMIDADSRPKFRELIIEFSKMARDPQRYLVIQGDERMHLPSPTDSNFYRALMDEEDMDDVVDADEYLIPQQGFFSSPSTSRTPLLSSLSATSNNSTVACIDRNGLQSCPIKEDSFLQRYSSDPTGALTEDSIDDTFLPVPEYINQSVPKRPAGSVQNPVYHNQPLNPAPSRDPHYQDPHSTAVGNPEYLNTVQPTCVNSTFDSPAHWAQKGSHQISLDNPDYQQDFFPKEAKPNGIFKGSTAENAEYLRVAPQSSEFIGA
# ErbB2 (HER2), sequence (P04626 23-1255): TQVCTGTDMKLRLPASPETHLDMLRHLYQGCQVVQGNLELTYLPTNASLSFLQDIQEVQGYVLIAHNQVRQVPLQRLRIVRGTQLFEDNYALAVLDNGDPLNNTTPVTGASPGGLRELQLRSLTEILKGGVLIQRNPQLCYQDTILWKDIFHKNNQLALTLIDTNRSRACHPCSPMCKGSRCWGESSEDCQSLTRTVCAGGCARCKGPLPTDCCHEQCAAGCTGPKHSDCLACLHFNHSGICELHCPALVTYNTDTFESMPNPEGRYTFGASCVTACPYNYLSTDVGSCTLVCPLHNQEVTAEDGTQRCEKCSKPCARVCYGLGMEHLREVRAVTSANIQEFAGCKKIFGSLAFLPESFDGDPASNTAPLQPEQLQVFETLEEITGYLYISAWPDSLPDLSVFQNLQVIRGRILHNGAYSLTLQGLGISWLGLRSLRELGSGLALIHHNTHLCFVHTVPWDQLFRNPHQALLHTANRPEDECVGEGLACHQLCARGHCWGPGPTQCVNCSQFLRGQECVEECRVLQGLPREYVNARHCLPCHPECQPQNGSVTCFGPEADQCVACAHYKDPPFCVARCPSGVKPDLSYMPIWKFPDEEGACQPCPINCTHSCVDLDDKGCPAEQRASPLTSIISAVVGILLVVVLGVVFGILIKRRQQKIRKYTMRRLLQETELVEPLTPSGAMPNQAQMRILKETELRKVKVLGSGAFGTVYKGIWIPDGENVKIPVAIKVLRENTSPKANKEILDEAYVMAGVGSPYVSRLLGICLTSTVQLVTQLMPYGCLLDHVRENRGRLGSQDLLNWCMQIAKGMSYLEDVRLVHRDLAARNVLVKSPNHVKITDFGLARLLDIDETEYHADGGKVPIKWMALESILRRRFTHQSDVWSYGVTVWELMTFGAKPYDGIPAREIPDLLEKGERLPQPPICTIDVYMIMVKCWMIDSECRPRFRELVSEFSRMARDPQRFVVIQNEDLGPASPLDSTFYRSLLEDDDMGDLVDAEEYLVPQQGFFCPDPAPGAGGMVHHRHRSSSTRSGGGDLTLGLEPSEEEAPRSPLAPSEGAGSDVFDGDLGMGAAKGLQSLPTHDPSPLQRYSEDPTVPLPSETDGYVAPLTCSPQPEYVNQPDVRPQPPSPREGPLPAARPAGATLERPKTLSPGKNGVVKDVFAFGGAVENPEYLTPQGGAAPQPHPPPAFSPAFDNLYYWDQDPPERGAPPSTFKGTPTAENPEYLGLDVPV
# ErbB4 (HER4), sequence (Q15303 26-1308): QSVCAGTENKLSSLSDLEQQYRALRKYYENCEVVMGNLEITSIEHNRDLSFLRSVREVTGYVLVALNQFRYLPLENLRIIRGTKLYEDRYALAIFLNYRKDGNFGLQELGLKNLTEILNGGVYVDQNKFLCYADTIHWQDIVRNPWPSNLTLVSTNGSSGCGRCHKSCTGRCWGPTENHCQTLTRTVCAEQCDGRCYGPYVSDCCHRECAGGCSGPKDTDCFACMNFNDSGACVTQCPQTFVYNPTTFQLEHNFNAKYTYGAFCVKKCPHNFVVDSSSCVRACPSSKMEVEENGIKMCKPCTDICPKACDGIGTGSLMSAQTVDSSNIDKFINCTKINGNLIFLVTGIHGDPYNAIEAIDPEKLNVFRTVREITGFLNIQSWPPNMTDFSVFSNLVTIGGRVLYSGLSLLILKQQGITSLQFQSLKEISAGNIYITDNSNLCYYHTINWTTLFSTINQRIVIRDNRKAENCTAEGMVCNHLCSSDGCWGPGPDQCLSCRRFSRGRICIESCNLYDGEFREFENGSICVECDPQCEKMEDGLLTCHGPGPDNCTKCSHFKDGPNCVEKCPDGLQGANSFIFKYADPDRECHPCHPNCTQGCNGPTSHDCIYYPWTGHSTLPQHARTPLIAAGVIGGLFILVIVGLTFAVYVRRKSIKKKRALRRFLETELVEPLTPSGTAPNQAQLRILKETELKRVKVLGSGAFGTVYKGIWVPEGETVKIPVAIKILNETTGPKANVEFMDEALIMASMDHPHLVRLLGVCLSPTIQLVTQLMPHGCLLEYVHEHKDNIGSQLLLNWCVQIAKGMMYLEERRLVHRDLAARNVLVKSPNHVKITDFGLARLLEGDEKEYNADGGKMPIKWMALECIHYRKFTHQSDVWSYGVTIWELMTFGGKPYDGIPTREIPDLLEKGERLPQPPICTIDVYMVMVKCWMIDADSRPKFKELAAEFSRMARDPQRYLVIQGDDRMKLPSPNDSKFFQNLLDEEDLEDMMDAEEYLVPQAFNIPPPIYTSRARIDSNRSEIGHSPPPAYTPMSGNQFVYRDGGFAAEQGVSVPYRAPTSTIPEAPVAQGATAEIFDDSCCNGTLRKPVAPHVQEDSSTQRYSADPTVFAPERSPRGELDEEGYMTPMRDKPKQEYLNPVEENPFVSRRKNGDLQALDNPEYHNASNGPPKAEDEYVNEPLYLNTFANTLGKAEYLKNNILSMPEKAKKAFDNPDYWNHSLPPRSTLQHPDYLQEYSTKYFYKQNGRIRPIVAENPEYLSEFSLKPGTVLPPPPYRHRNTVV
smiles,measurement,setting,value
CS(=O)(=O)CCNCc1ccc(-c2ccc3ncnc(Nc4ccc(OCc5cccc(F)c5)c(Cl)c4)c3c2)o1 [lapatinib],inhibition of ErbB2 (HER2),ErbB2 (HER2),inhibit
same,inhibition of ErbB4 (HER4),ErbB4 (HER4),inhibit
"CC(C)(O)CC(=O)NCCn1ccc2ncnc(Nc3ccc(Oc4cccc(C(F)(F)F)c4)c(Cl)c3)c21 [TAK-285, N-(2-(4-(3-chloro-4-(3-(trifluoromethyl)phenoxy)phenylamino)-5H-pyrrolo[3,2-d]pyrimidin-5-yl)ethyl)-3-hydroxy-3-methylbutanamide]",inhibition of ErbB2 (HER2),ErbB2 (HER2),inhibit
same,inhibition of ErbB4 (HER4),ErbB4 (HER4),inhibit
"C=CC(=O)Nc1cc(Nc2nccc(-c3cn(C)c4ccccc34)n2)c(OC)cc1N(C)CCN(C)C [osimertinib, 2-propenamide, N-[2-[[2-(dimethylamino)ethyl]methylamino]-4-methoxy-5-[[4-(1-methyl-1H-indol-3-yl)-2-pyrimidinyl]amino]phenyl]-]",inhibitory activity against mutant EGFR,mutant EGFR,inhibitory activity
same,inhibition of ErbB2 (HER2),ErbB2 (HER2),inhibitory activities
same,tumor growth in mice transplanted with non-small cell lung cancer with EGFR EX20Ins mutation,[1],inhibit
same,inhibition of ErbB4 (HER4),ErbB4 (HER4),inhibitory activities
same,mice alive 11 weeks after the gastric cancer cell transplantation,[2],2 mice
same,t-test for numbers of mice alive 11 weeks after transplantation compared with the control group,[2],significant differences
C[C@@H](c1ccc2nccn2c1)n1nnc2ncc(-c3cnn(C)c3)nc21 [savolitinib],mice alive 11 weeks after the gastric cancer cell transplantation,[2],all died
same,mice alive seven weeks after the gastric cancer cell transplantation,[2],2 mice
same,t-test for numbers of mice alive 11 weeks after transplantation compared with the control group,[2],no significant difference
"CCN1CCN(Cc2ccc(-c3cc4c(N[C@H](C)c5ccccc5)ncnc4[nH]3)cc2)CC1 [AEE788, (R)-6-(4-((4-ethylpiperazin-1-yl)methyl)phenyl)-N-(1-phenylethyl)-7H-pyrrolo[2,3-d]pyrimidin-4-amine]",inhibition of ErbB2 (HER2),ErbB2 (HER2),inhibit
same,inhibition of ErbB4 (HER4),ErbB4 (HER4),inhibit
same,inhibition of EGFR (ErbB1),EGFR (ErbB1),inhibit
"Cc1c(NC(=O)OC[C@@H]2COCCN2)cn2ncnc(Nc3ccc4c(cnn4Cc4cccc(F)c4)c3)c12 [AC480, (S)-morpholin-3-ylmethyl 4-(1-(3-fluorobenzyl)-1H-indazol-5-ylamino)-5-methylpyrrolo[1,2-f][1,2,4]triazine-6-carbamate]",inhibition of ErbB2 (HER2),ErbB2 (HER2),inhibit
same,inhibition of ErbB4 (HER4),ErbB4 (HER4),inhibit
same,inhibition of EGFR (ErbB1),EGFR (ErbB1),inhibit
"C=CC(=O)N1CCC(Oc2cc3c(Nc4ccc(Cl)c(Cl)c4F)ncnc3cc2OC)CC1 [poziotinib, 1-(4-(4-(3,4-dichloro-2-fluorophenylamino)-7-methoxyquinazolin-6-yloxy)piperidin-1-yl)prop-2-en-1-one]",inhibition of ErbB2 (HER2),ErbB2 (HER2),inhibit
same,inhibition of ErbB4 (HER4),ErbB4 (HER4),inhibit
same,inhibition of EGFR (ErbB1),EGFR (ErbB1),inhibit
COc1cc2ncnc(Nc3ccc(F)c(Cl)c3)c2cc1NC(=O)/C=C/CN1CCCCC1 [dacomitinib],inhibition of ErbB2 (HER2),ErbB2 (HER2),inhibit
same,inhibition of ErbB4 (HER4),ErbB4 (HER4),inhibit
same,inhibition of EGFR (ErbB1),EGFR (ErbB1),inhibit
"C=CC(=O)Nc1cc(Nc2nccc(-c3c[nH]c4ccccc34)n2)c(OC)cc1N(C)CCN(C)C [AZ5104, N-(5-(4-(1H-indol-3-yl)pyrimidin-2-ylamino)-2-((2-(dimethylamino)ethyl)(methyl)amino)-4-methoxyphenyl)acrylamide]",inhibitory activity against mutant EGFR,mutant EGFR,inhibitory activity
same,inhibition of ErbB2 (HER2),ErbB2 (HER2),inhibitory activities
same,HB-EGF-induced cell growth of normal human gastric fibroblasts,[3],inhibited
same,tumor growth in mice transplanted with non-small cell lung cancer with EGFR EX20Ins mutation,[1],inhibit
same,inhibition of ErbB4 (HER4),ErbB4 (HER4),inhibitory activities
same,HB-EGF-induced cell growth of GCIY,GCIY,inhibited
same,HGF-induced cell growth of GCIY,GCIY,inhibited
same,amphiregulin-induced cell growth of GCIY,GCIY,inhibited
same,baseline cell growth of GCIY,GCIY,inhibited
same,concentration at which cell growth of MKN45 was inhibited,MKN45,≥ 1 µM
same,inhibition of EGFR (ErbB1),EGFR (ErbB1),inhibitory activities
same,concentration at which HGF-induced cell growth of GCR-1 was inhibited,GCR-1,≥ 0.3 µM
same,mice alive 11 weeks after the gastric cancer cell transplantation,[2],all died
same,mice alive seven weeks after the gastric cancer cell transplantation,[2],one
same,t-test for numbers of mice alive 11 weeks after transplantation compared with the control group,[2],significant differences
same,concentration at which HGF-induced cell growth of MKN7 was inhibited,MKN7,≥ 0.3 µM
same,HB-EGF-induced cell growth of NUGC4,NUGC4,inhibited
same,HGF-induced cell growth of NUGC4,NUGC4,inhibited
same,amphiregulin-induced cell growth of NUGC4,NUGC4,inhibited
"C=CC(=O)Nc1ccc2ncnc(Nc3ccc(OCc4cccc(F)c4)c(Cl)c3)c2c1.Cc1ccc(S(=O)(=O)O)cc1 [AST1306, 2-propenamide, N-[4-[[3-chloro-4-[(3-fluorophenyl)methoxy]phenyl]amino]-6-quinazolinyl]-, 4-methylbenzenesulfonate (1:1)]",tumor growth in FVB-2/Nneu transgenic breast cancer mice,[4],potently inhibited
same,inhibition of ErbB2 (HER2),ErbB2 (HER2),irreversible inhibitor
same,HB-EGF-induced cell growth of normal human gastric fibroblasts,[3],inhibited
same,growth inhibitory effect in ErbB2-overexpressing cells,[5],more potent
same,partial remission,cancer patients,7 patients
same,stability (stability over 6 months or longer),cancer patients,7 patients
same,inhibition of ErbB4 (HER4),ErbB4 (HER4),irreversible inhibitor
same,HB-EGF-induced cell growth of GCIY,GCIY,inhibited
same,HGF-induced cell growth of GCIY,GCIY,inhibited
same,amphiregulin-induced cell growth of GCIY,GCIY,inhibited
same,baseline cell growth of GCIY,GCIY,inhibited
same,tumor growth in ErbB2-overexpressing adenocarcinoma xenografted mice,[6],potently inhibited
same,concentration at which cell growth of MKN45 was inhibited,MKN45,≥ 1 µM
same,inhibition of EGFR (ErbB1),EGFR (ErbB1),irreversible inhibitor
same,concentration at which HGF-induced cell growth of GCR-1 was inhibited,GCR-1,≥ 0.3 µM
same,tumor growth in EGFR-overexpressing tumor xenografted mice,[7],weakly inhibited
same,concentration at which HGF-induced cell growth of MKN7 was inhibited,MKN7,≥ 0.3 µM
same,HB-EGF-induced cell growth of NUGC4,NUGC4,inhibited
same,HGF-induced cell growth of NUGC4,NUGC4,inhibited
same,amphiregulin-induced cell growth of NUGC4,NUGC4,inhibited
